Test results from publication PMC6383769 (Nature, 2019).

What was measured:
[1] = target: human D2 (D2 long receptor) (Homo sapiens, UniProt P14416); experiment: biochemical; format: binding
human D3 = human D3 (Homo sapiens, UniProt P35462); experiment: D3 radioligand binding assay
human D4 (D4.4 variant) [2] = target: T1, human D4 (D4.4 variant) (Homo sapiens, UniProt P21917); experiment: biochemical; format: binding
T1 sequence (P21917 1-419): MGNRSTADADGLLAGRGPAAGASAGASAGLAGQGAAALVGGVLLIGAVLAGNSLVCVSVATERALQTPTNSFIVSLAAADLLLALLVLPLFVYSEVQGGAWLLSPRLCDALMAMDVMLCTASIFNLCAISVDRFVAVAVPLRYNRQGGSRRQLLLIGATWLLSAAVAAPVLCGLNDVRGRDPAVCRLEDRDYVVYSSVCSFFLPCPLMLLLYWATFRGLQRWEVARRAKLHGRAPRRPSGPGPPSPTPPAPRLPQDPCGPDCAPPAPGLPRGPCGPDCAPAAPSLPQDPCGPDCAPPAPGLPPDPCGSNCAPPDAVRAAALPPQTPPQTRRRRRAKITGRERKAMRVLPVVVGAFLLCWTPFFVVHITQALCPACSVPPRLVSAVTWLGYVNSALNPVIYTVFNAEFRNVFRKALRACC

human D4 (D4.4 variant) [3] = target: T1, human D4 (D4.4 variant); experiment: cell-based
cloned human D4 = target: T2, cloned human D4 (Homo sapiens, UniProt P21917); experiment: cell-based; conditions: Tango EC50, D4 β-arrestin
T2 sequence (P21917 1-419): T1 sequence (P21917 1-419)

human D4 [4] = target: T3, human D4 (Homo sapiens, UniProt P21917); experiment: cell-based
T3 sequence (P21917 1-419): T1 sequence (P21917 1-419)

human D4 [5] = target: T3, human D4; experiment: Arrestin BRET; format: cell-based
D4 dopamine receptor = experiment: Signaling bias, G protein versus β-arrestin, versus quinpirole; format: cell-based, human

Chain of human D3 (P35462 whole entry): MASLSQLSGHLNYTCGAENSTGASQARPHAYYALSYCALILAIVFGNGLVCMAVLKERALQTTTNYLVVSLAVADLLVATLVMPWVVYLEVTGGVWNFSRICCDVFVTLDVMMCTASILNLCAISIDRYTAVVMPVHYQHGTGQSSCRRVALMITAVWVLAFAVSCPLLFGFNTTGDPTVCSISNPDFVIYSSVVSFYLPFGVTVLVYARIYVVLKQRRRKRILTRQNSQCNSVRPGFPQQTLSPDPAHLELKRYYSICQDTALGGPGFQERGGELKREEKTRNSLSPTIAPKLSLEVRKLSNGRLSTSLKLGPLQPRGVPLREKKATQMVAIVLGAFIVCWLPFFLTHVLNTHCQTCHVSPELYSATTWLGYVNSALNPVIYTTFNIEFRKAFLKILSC
Chain of human D2 (D2 long receptor) (P14416 whole entry): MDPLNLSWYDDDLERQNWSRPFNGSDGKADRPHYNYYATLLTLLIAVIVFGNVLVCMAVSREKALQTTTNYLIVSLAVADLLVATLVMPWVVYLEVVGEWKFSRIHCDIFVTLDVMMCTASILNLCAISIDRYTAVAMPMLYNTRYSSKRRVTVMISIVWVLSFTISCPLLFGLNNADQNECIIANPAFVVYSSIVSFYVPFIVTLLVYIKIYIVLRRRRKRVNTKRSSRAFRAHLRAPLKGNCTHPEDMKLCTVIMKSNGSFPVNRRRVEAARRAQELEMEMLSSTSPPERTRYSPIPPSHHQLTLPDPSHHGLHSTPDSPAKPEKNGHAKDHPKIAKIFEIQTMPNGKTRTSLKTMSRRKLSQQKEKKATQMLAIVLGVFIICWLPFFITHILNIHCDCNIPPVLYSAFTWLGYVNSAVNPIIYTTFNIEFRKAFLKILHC

C#CCOc1ccccc1CN1CC[C@@]2(C1)C(=O)Nc1ccccc12 [ZINC375299581]
Ki [1]: > 10 µM | Ki (human D3): > 10 µM | Ki (human D4 (D4.4 variant) [2]): 0.18 µM

CC(C)N1C[C@H](C)[C@H](NC(=O)c2cccc3cc[nH]c23)C1 [ZINC247398558]
Ki [1]: > 10 µM | Ki (human D3): > 10 µM | Ki (human D4 (D4.4 variant) [2]): 0.21 µM

CCC[C@H](C)[C@H](CO)NCCc1nc(-c2ccc(Cl)cc2)no1 [ZINC567992445]
EC50 (human D4 (D4.4 variant) [3]): 4.82 µM | Ki [1]: > 10 µM | Ki (human D3): > 10 µM | Ki (human D4 (D4.4 variant) [2]): 0.85 µM

C[C@@H]1CCCN(C(C)(C)CNc2nc(C3CC3)ns2)C1 [ZINC92642352]
Ki [1]: > 10 µM | Ki (human D3): > 10 µM | Ki (human D4 (D4.4 variant) [2]): 0.82 µM

CC1(C)CCN(CC(=O)NC[C@@H]2CCC[C@H]2C2CC2)C1 [ZINC572302473]
Ki [1]: > 10 µM | Ki (human D3): > 10 µM | Ki (human D4 (D4.4 variant) [2]): 0.91 µM

N#Cc1ccnc(SC[C@]2(O)CCN(Cc3ccccc3)C2)c1 [ZINC601953994]
Ki [1]: > 10 µM | Ki (human D3): > 10 µM | Ki (human D4 (D4.4 variant) [2]): 0.98 µM

C[C@H]1CN(C2CC2)C[C@H]1NC(=O)c1cc2cc([N+](=O)[O-])ccc2s1 [ZINC268141382]
EC50 (human D4 (D4.4 variant) [3]): 9.9 µM | Ki [1]: > 10 µM | Ki (human D3): > 10 µM | Ki (human D4 (D4.4 variant) [2]): 0.56 µM

Cc1ccc(CNCCCn2cccn2)cc1Br [ZINC127859549]
EC50 (human D4 (D4.4 variant) [3]): 10.4 µM | Ki [1]: > 10 µM | Ki (human D3): 3.57 µM | Ki (human D4 (D4.4 variant) [2]): 0.26 µM

C=C(C)COCCNC[C@H](O)Cc1ccc(C(F)(F)F)cc1 [ZINC569686370]
EC50 (human D4 (D4.4 variant) [3]): 7.8 µM | Ki [1]: > 10 µM | Ki (human D3): > 10 µM | Ki (human D4 (D4.4 variant) [2]): 0.55 µM

C[C@H](CNC(=O)c1coc2ccc(Cl)cc12)N1CCCC1 [ZINC651262870]
EC50 (human D4 (D4.4 variant) [3]): 31 µM | Ki [1]: > 10 µM | Ki (human D3): > 10 µM | Ki (human D4 (D4.4 variant) [2]): 0.44 µM

CCC(CC)[C@@H](O)CNCc1cnc(-c2ccccc2F)s1 [ZINC449156693]
Ki [1]: > 10 µM | Ki (human D3): > 10 µM | Ki (human D4 (D4.4 variant) [2]): 0.76 µM

C=Cn1cc(CNC[C@@H](CO)Cc2ccccc2Br)cn1 [ZINC278933042]
EC50 (human D4 (D4.4 variant) [3]): 0.041 µM | Ki [1]: > 10 µM | Ki (human D3): > 10 µM | Ki (human D4 (D4.4 variant) [2]): 0.27 µM | EC50 (cloned human D4): 22.3 µM

CCCC[C@H](CN)NC(=O)Nc1cnn(-c2ccc(C)cc2C)c1 [ZINC415558697]
Ki [1]: 2 µM | Ki (human D3): 5.87 µM | Ki (human D4 (D4.4 variant) [2]): 0.99 µM

CC(C)N1C[C@H](C)[C@H](NC(=O)N2Cc3ccccc3[C@@H]2C)C1 [ZINC621433143]
EC50 (human D4 [4]): 3.15 µM | EC50 (human D4 (D4.4 variant) [3]): 0.35 µM | Ki [1]: > 10 µM | Ki (human D3): > 10 µM | EC50 (human D4 [5]): 1.25 µM | Ki (human D4 (D4.4 variant) [2]): 0.669 µM | EC50 (cloned human D4): 0.898 µM | β-arrestin bias (D4 dopamine receptor): 7

C[C@H](N[C@H](CO)Cc1ccccc1)c1cc2c(s1)CCC2 [ZINC437075156]
EC50 (human D4 (D4.4 variant) [3]): 10.4 µM | Ki [1]: > 10 µM | Ki (human D3): > 10 µM | Ki (human D4 (D4.4 variant) [2]): 0.19 µM

O=C(CN1C[C@@H](O)C[C@@H]1C1CC1)Nc1ccc(Br)cc1 [ZINC640028109]
Ki [1]: > 10 µM | Ki (human D3): > 10 µM | Ki (human D4 (D4.4 variant) [2]): 0.81 µM

Cc1cccc(CCNCc2ccn(-c3ccccc3)n2)c1 [ZINC237938360]
Ki [1]: 5.72 µM | Ki (human D3): 1.07 µM | Ki (human D4 (D4.4 variant) [2]): 0.18 µM

C[C@H]1CN(C2CC2)C[C@H]1NC(=O)c1cc2cc(Br)ccc2o1 [ZINC467716766]
EC50 (human D4 (D4.4 variant) [3]): 34.8 µM | Ki [1]: > 10 µM | Ki (human D3): > 10 µM | Ki (human D4 (D4.4 variant) [2]): 0.7 µM

O[C@]1(CNCc2cnn(-c3ccc(Br)cc3)c2)CCSC1 [ZINC176752603]
Ki [1]: > 10 µM | Ki (human D3): > 10 µM | Ki (human D4 (D4.4 variant) [2]): 0.3 µM

OC[C@H](Cc1ccc(F)cc1)NCc1ccn(-c2ccccc2)n1 [ZINC358506216]
Ki [1]: 5.88 µM | Ki (human D3): 6.54 µM | Ki (human D4 (D4.4 variant) [2]): 0.25 µM
